From article PMC7316778 (Nature Communications, 2020)
Where “and” joins values, the source holds several entries; their conditions need not be identical. Identical values can stand only once. Like-named read-outs stand apart in the source and are kept apart here.

Legend:
[1] = biological target: ERN2 (Homo sapiens, UniProt Q76MJ5); assay: SelectScreen kinase assay
Experimental: (§1) Selectivity profiling assays were performed by the Invitrogen SelectScreen™ Services. […] The concentration of ATP was selected to be equal to the KM, unless indicated otherwise.

[2] = biological target: SPHK2 (Homo sapiens, UniProt Q9NRA0); assay: SelectScreen kinase assay
Experimental: as §1

[3] = biological target: T1, BMPR2 (Homo sapiens, UniProt Q13873); assay: SelectScreen kinase assay
T1 sequence (Q13873 27-1038): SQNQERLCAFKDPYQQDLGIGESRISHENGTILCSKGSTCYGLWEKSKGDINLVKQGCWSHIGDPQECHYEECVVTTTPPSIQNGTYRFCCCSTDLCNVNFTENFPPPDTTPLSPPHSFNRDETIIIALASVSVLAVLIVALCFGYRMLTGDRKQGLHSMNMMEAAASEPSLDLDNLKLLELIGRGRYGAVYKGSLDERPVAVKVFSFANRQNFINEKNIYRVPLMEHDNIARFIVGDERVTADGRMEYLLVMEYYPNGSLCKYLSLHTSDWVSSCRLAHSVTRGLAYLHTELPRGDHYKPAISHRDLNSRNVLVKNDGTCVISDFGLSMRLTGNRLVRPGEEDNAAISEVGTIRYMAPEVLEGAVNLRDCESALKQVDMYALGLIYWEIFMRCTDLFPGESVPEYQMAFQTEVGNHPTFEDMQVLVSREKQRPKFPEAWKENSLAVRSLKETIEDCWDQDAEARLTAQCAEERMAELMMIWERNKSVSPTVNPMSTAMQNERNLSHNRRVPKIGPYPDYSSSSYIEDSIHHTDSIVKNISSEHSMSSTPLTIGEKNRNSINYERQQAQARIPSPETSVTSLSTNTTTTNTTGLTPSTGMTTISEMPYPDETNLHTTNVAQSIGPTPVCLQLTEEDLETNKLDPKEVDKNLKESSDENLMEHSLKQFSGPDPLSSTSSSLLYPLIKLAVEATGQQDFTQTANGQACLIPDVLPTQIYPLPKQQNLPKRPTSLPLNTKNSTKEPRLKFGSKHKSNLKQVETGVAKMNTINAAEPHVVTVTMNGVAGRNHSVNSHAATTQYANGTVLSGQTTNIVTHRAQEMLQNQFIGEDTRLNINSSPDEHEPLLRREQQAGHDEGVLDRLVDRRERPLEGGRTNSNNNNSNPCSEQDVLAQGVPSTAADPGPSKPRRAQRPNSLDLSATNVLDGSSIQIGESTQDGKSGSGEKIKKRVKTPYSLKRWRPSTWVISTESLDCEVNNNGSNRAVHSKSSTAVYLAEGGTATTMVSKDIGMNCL
Experimental: as §1

[4] = biological target: T2, EPHA3 (Homo sapiens, UniProt P29320); assay: SelectScreen kinase assay
T2 sequence (P29320 21-983): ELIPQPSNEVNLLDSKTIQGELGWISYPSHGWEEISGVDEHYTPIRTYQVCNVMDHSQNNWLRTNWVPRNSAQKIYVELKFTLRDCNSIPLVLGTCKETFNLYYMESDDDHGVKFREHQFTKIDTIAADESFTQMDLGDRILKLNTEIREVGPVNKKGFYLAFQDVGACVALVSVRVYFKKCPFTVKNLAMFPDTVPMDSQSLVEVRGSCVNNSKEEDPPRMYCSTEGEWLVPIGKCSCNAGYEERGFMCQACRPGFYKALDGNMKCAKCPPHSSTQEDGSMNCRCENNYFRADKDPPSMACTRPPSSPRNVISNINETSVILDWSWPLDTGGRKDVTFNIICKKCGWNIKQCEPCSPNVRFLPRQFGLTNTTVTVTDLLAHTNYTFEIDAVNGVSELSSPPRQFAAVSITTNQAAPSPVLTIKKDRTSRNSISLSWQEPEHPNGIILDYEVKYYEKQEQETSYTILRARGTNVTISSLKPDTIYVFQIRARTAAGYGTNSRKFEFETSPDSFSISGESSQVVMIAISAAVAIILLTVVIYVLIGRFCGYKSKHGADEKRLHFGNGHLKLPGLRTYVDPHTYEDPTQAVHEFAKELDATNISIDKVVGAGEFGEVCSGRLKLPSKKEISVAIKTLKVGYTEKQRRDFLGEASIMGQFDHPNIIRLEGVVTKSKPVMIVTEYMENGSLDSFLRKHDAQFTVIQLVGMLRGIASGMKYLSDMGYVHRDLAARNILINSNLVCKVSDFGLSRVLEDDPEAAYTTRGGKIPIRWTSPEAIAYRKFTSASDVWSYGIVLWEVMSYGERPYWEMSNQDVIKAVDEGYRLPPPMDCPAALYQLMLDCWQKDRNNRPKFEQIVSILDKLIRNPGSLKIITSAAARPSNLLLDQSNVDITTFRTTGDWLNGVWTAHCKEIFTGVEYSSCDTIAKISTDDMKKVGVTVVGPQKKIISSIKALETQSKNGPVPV
Experimental: as §1

[5] = biological target: GSK3B (GSK3 beta) (Homo sapiens, UniProt P49841); assay: SelectScreen kinase assay
Experimental: as §1

[6] = biological target: STK24 (MST3) (Homo sapiens, UniProt Q9Y6E0); assay: SelectScreen kinase assay
Experimental: as §1

[7] = biological target: IKBKB (IKK beta) (Homo sapiens, UniProt O14920); assay: SelectScreen kinase assay
Experimental: as §1

[8] = biological target: T3, endogenous FES^S700C in HL-60 cells (Homo sapiens, UniProt P07332, S700C); assay: Gel-based target engagement during PMA-induced macrophage differentiation; assay type: cell-based; conditions: for Relative FES labeling (%): Figure 6b
T3 construct: endogenous in cells; host or cells: HL-60 FES^S700C clone, differentiated to macrophages or neutrophils
Experimental: Cells were pretreated with vehicle or WEL028 (100 or 1000 nM, 1 h) prior to induction of differentiation towards monocytes/macrophages with PMA (16 nM, 48 h). Medium was refreshed with growth medium containing WEL028 and PMA after 24 h to maintain full FES inhibition. […] Threshold for CD11b-positive cells was determined using isotype control antibody. […] Kinases with native cysteine at DFG-1 position are shown in bold. All data represent means ± SEM.

[9] = biological target: FES (FPS) (Homo sapiens, UniProt P07332); assay: SelectScreen kinase assay
Experimental: as §1

[10] = read-out: Inhibition at 1 µM (%)
[11] = 1 h, 1 μM WEL028, 1 h preincubation

FES (FPS), sequence (P07332 whole entry): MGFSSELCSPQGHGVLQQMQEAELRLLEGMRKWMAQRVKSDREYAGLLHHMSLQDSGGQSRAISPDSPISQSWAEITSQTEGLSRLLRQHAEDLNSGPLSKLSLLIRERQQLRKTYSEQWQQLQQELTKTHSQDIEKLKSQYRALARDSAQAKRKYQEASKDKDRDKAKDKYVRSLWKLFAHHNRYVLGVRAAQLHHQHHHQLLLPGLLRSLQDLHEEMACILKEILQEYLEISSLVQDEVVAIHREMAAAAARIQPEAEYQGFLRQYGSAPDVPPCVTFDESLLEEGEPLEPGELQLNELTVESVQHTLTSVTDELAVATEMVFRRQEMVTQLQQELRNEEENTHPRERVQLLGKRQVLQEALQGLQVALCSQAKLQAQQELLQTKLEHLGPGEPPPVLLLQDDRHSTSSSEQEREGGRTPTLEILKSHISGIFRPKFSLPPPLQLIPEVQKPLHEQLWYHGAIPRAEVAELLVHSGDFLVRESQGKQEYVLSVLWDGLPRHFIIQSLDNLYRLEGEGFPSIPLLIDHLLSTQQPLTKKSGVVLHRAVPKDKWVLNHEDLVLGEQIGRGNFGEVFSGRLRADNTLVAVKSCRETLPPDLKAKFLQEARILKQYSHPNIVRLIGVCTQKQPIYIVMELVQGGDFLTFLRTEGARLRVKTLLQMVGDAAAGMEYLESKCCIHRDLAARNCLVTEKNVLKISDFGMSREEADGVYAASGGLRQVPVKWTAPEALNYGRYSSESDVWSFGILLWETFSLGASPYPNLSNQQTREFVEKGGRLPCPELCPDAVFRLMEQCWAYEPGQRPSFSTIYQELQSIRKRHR
STK24 (MST3), sequence (Q9Y6E0 whole entry): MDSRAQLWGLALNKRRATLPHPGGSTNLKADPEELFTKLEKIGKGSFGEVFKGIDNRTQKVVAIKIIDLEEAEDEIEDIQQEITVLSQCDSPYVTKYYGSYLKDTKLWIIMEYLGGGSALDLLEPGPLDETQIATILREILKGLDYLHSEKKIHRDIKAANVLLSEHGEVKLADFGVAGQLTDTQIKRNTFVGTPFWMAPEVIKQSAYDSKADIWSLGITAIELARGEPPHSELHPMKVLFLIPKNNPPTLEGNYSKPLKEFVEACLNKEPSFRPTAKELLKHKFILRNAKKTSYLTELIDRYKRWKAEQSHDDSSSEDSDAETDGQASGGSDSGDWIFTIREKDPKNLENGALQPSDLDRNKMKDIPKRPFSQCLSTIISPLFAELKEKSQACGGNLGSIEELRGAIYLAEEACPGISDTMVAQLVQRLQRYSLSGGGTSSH
T3 sequence (P07332 whole entry S700C): as the sequence (P07332 whole entry) above, with S700C counted along it
SPHK2, sequence (Q9NRA0 whole entry): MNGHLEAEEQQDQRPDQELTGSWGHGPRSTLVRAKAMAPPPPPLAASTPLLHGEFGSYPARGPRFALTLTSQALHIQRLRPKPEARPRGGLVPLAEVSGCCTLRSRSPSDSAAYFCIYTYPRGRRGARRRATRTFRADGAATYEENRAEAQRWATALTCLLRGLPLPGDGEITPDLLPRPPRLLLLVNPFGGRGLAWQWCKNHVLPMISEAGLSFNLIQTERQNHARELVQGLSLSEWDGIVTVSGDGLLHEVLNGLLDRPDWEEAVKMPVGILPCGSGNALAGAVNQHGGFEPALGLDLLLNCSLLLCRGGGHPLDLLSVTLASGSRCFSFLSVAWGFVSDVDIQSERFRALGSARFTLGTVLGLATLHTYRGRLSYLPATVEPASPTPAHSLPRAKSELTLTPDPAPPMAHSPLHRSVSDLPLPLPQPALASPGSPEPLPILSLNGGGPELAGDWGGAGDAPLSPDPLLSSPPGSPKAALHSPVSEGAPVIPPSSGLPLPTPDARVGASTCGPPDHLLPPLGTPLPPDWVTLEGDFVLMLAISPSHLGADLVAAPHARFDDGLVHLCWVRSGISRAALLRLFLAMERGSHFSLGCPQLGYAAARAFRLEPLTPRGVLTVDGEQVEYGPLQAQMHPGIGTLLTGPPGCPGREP
GSK3B (GSK3 beta), sequence (P49841 whole entry): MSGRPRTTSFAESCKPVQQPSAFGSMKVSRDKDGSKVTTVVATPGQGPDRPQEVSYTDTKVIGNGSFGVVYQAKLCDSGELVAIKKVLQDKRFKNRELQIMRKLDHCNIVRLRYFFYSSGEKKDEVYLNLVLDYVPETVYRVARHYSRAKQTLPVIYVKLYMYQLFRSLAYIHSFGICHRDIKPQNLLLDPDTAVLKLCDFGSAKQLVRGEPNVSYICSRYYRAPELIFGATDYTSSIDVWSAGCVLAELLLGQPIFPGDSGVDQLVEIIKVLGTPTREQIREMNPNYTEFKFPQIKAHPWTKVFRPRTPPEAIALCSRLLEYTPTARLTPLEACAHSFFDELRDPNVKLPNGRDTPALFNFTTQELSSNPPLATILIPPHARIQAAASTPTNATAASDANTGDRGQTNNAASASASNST
ERN2, sequence (Q76MJ5 35-926): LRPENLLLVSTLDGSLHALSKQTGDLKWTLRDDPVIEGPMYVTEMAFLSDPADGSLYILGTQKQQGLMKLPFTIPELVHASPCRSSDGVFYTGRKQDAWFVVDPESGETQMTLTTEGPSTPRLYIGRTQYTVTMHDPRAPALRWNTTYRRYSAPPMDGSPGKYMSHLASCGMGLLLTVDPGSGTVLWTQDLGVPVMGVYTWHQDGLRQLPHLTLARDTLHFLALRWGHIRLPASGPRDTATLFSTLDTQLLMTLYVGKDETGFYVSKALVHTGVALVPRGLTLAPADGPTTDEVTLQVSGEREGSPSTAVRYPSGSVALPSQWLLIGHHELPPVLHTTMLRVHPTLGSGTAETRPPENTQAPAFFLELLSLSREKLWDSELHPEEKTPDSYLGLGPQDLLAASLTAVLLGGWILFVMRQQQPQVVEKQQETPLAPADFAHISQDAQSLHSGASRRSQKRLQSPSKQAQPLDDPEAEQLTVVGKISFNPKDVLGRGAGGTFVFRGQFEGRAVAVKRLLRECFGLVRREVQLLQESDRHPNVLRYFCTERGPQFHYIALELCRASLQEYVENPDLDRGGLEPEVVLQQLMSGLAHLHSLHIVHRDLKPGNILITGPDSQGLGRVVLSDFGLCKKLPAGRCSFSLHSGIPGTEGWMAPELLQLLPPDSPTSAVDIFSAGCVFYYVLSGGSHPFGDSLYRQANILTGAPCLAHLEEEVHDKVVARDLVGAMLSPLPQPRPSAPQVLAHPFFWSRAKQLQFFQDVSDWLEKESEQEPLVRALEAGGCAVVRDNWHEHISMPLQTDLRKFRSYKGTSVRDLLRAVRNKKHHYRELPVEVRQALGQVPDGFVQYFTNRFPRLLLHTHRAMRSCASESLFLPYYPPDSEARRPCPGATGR
IKBKB (IKK beta), sequence (O14920 whole entry): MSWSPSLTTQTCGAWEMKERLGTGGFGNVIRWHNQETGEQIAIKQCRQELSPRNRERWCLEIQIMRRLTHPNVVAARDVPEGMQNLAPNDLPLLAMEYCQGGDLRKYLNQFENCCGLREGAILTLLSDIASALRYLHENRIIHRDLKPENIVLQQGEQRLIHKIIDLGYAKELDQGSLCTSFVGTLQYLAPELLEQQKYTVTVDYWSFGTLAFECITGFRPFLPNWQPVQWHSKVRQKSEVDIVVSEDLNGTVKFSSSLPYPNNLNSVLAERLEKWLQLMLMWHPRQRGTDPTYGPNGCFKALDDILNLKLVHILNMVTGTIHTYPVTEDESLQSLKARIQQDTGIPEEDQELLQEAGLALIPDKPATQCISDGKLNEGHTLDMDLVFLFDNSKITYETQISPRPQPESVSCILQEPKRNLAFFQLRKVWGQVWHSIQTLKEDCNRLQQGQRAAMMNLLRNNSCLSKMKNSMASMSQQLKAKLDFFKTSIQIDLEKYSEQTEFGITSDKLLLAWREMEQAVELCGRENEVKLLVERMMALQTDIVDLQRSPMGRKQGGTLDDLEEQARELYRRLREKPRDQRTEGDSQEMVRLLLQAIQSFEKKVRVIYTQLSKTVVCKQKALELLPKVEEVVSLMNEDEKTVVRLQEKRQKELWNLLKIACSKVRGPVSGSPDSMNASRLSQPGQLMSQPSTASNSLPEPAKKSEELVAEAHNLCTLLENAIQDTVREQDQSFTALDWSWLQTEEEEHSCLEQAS

## C#CCOc1ccc(Nc2ncc(Cl)c(Nc3ccccc3NC(=O)C=C)n2)c(OC)c1 [Compound 6]
[1]; 1 h
  inhibition at 1 µM: -1%
[1]; [10]
  inhibition at 1 µM: -1%
[2]; 1 µM, Adapta, ATP 10, listed as WEL028, 1 µM
  Inhibition at 1 µM (%): 5% and 1%
[2]; [11]
  inhibition at 1 µM: 3%
[3]; 1 μM WEL028, 1 h preincubation
  Inhibition (%): 3%
[3]; BMPR2, 1 µM, LanthaScreen Binding, listed as WEL028, 1 µM
  Inhibition at 1 µM (%): 2%
[3]; read-out: Inhibition at 1 µM (%), BMPR2, 1 µM, LanthaScreen Binding
  inhibition at 1 µM: 4%
[4]; [11]
  inhibition at 1 µM: 9%
[4]; EPHA3, 1 µM, LanthaScreen Binding, listed as WEL028, 1 µM
  Inhibition at 1 µM (%): 8%
[4]; read-out: Inhibition at 1 µM (%), EPHA3, 1 µM, LanthaScreen Binding
  inhibition at 1 µM: 10%
[5]; [11]
  inhibition at 1 µM: 4%
[5]; read-out: Inhibition at 1 µM (%), GSK3B (GSK3 beta), 1 µM, ZLYTE, ATP Km app
  inhibition at 1 µM: 5%
[6]; 1 μM WEL028, 1 h preincubation
  Inhibition (%): 12%
[6]; 1 µM, ZLYTE, ATP Km app, listed as WEL028, 1 µM
  Inhibition at 1 µM (%): 15%
[6]; read-out: Inhibition at 1 µM (%), 1 µM, ZLYTE, ATP Km app
  inhibition at 1 µM: 9%
[7]; 1 h
  inhibition at 1 µM: 1%
[7]; [10]
  inhibition at 1 µM: 1%
[8]; 100 nM WEL028 during PMA-induced differentiation
  Target engagement of engineered FES: full target engagement
[8]; WEL028 100 nM
  Relative FES labeling (%): 6.297% and 1.811% and 0.4549%
[8]; WEL028 1 µM
  Relative FES labeling (%): -1.423% and -3.177% and -0.4317%
[9]; [11]
  inhibition at 1 µM: 15%
[9]; FES (FPS), 1 µM, ZLYTE, ATP Km app, listed as WEL028, 1 µM
  Inhibition at 1 µM (%): 17%
[9]; read-out: Inhibition at 1 µM (%), FES (FPS), 1 µM, ZLYTE, ATP Km app
  inhibition at 1 µM: 12%
